Source: paper PMC9851200, “Multiparameter phenotypic screening for endogenous TFEB and TFE3 translocation identifies novel chemical series modulating lysosome function” (Autophagy, 2022)
“Also recorded” adds a separate entry of the source. Read-outs that look alike come from different tables or passages of the source.

Columns and labels:
SH-SY5Y cells [1] = system: SH-SY5Y cells
Text: The PKIS2 Library was supplied by The Structural Genomics Consortium at the University of North Carolina at Chapel Hill.

SH-SY5Y cells [2] = assay: AK (adenylate kinase) release ToxiLight cytotoxicity assay; details: for Cellular toxicity (AK release and nuclear count, in words): SH-SY5Y, 24 h treatment; for AK: PKIS2 primary screening
Experimental: Total cell lysis with 5 µL 5% Triton-X 100 (Sigma-Aldrich, T8787) is used as a positive control for the assay and toxicity is expressed as a percentage of luminescence under DMSO conditions.

endogenous TFEB = assay: TFEB nuclear translocation, immunocytochemistry high-content imaging; assay type: cell-based; details: for TFEB %: PKIS2 primary screening
endogenous TFE3 = assay: TFE3 nuclear translocation, immunocytochemistry high-content imaging; assay type: cell-based; details: for TFE3 %: PKIS2 primary screening; for Best-Fit Values Span: TFE3 assay concentration response; for Best-Fit Values Span / EC50: 24 h; for EC50: TFE3 assay, read-out: Best-Fit Values EC50 (converted); for Summary: activity in TFE3 assays compared with original NK-140, OT activity
SH-SY5Y cells [3] = assay: Nuclear count from microscopy images (cellular growth and toxicity); details: PKIS2 primary screening
[4] = PKIS2 primary screening, DQ Red BSA intensity
[5] = PKIS2 primary screening, DQ Red BSA spot count
[6] = SH-SY5Y, concentration-dependent

| Compound | DQ Intensity (SH-SY5Y cells [1]; [4]) | DQ Spot (SH-SY5Y cells [1]; [5]) | Nuclear Count (SH-SY5Y cells [3]) | AK (SH-SY5Y cells [2]) | TFEB % (endogenous TFEB) | TFE3 % (endogenous TFE3) | further results |
| --- | --- | --- | --- | --- | --- | --- | --- |
| CC(=O)Nc1ccc(C(=O)Nc2ccccc2N)cc1 [CI-994, Tacedinaline, reference compound] |  |  |  |  |  |  | DQ Red BSA signal (in words) (SH-SY5Y cells [1]; SH-SY5Y, 24 h treatment): robustly increase DQ Red BSA puncta signal; DQ Red BSA spot count / active lysosome count (in words) (SH-SY5Y cells [1]; SH-SY5Y, 24 h treatment): increases |
| O=C1NCCCc2c1oc1ccc(O)cc21 [CID755673, reference compound] |  |  |  |  |  |  | DQ Red BSA signal (in words) (SH-SY5Y cells [1]): no TFEB and TFE3 translocation, alteration in DQ Red BSA signal or toxicity; also recorded: no effect across these assays; Cellular toxicity (AK release and nuclear count, in words) (SH-SY5Y cells [2]): no TFEB and TFE3 translocation, alteration in DQ Red BSA signal or toxicity; also recorded: no effect across these assays; TFEB translocation (in words) (endogenous TFEB): no TFEB and TFE3 translocation; also recorded: no effect across these assays; TFE3 translocation (in words) (endogenous TFE3): no TFEB and TFE3 translocation; also recorded: no effect across these assays |
| O=C(Nc1ccc(CN2CCOCC2)cc1)c1ccc(-c2cccc(Cl)c2)o1 [CID2011756, reference compound] |  |  |  |  |  |  | DQ Red BSA signal (in words) (SH-SY5Y cells [1]): some reduction of DQ Red BSA signal; Lysosomal toxicity (in words) (SH-SY5Y cells [1]; human): marked lysosomal and cellular toxicity at 20 µM; Cellular toxicity (AK release and nuclear count, in words) (SH-SY5Y cells [2]): marked lysosomal and cellular toxicity at 20 µM; TFEB translocation (in words) (endogenous TFEB): some TFEB and TFE3 translocation only at 20 µM; also recorded: induced TFEB and TFE3 translocation only alongside marked lysosomal and cellular toxicity at 20 µM; TFE3 translocation (in words) (endogenous TFE3): some TFEB and TFE3 translocation only at 20 µM; also recorded: induced TFEB and TFE3 translocation only alongside marked lysosomal and cellular toxicity at 20 µM |
| Clc1cc(Cl)cc(Nc2ccnc(Nc3cc(Cl)cc(Cl)c3)n2)c1 [GSK175726] | 98.51 | 117.48 | 91.70 | 105.62 | 3.77% | 10.08% |  |
| Cc1ccc(S(=O)(=O)Nc2ccc(Nc3nccc(Nc4cccc5[nH]ncc45)n3)cc2)cc1 [GSK581271] | 132.42 | 120.36 | 129.24 | 89.43 | 3.93% | 6.80% |  |
| Nc1nccc(-c2ccc3c(N)n[nH]c3c2)n1 [GSK1034945] | 84.11 | 101.09 | 141.53 | 117.83 | 3.25% | 14.89% |  |
| COc1ccc(Nc2nccc(-c3ccc(NC(=O)c4cc5cc(F)ccc5[nH]4)cc3)n2)cc1 [GSK1229496] | 79.73 | 89.01 | 129.71 | 76.92 | 5.47% | 10.21% |  |
| Cc1cccc(-c2nc(Nc3ccc4ncn(C)c4c3)c3ccccc3n2)n1 [NK173] |  |  |  |  |  |  | Best-Fit Values Span (endogenous TFE3; SH-SY5Y): 80.89; EC50 (endogenous TFE3; SH-SY5Y, second EC50 of biphasic/bell-shaped fit or OT (off-target) activity, unit inferred): 1.92 µM; Summary (endogenous TFE3): Only OT activity |
| Cc1cccc(-c2nc(Nc3ccc4[nH]ccc4c3)c3ccccc3n2)n1 [NK218] |  |  |  |  |  |  | Best-Fit Values Span (endogenous TFE3; SH-SY5Y): 20.78; EC50 (endogenous TFE3; SH-SY5Y, µM): 0.42 µM; Summary (endogenous TFE3): More Potent |
| CC(C)c1nc(-c2cccc(NS(=O)(=O)c3ccccc3)c2)c(-c2ccnc(Nc3ccc4c(c3)CN(C)CC4)n2)s1 [UNC10225068A] |  |  | 76.87 | 114.97 |  | 63.29% | DQ Intensity (SH-SY5Y cells [1]; PKIS2 primary screening): 3.98; DQ Spot (SH-SY5Y cells [1]; PKIS2 primary screening): 39.66 |
| Cc1cnc(N)c(/C=C/c2cncc(C(=O)NCCc3ccc(Cl)cc3Cl)c2)c1.Cl [UNC10225238A] | 95.52 | 99.30 |  |  |  |  |  |
| C[C@@H](Oc1cc(-n2cnc3cc(-c4cnn(C)c4)ccc32)sc1C(N)=O)c1ccccc1Cl [UNC10225416A] |  |  |  | 104.83 | 18.53% | 8.07% | DQ Intensity (SH-SY5Y cells [1]): 219.18; DQ Spot (SH-SY5Y cells [1]): 124.35 |
| CCN(CC)CCCC(C)Nc1ccnc2cc(Cl)ccc12 (stereo not drawn) [chloroquine, reference compound] |  |  |  |  |  |  | DQ Red BSA signal (in words) (SH-SY5Y cells [1]; SH-SY5Y, 24 h treatment): greatly reduced; DQ Red BSA spot count / active lysosome count (in words) (SH-SY5Y cells [1]; SH-SY5Y, 24 h treatment): reduces; TFEB translocation from the cytoplasm to the nucleus (% nTFEB) (endogenous TFEB; [6]): > 80%; TFE3 translocation from the cytoplasm to the nucleus (% nTFE3) (endogenous TFE3; [6]): > 80% |
